# Experimental data published in US8940731B2, “Substituted pyridyl amide compounds as modulators of the histamine H3 receptor” (Janssen Pharmaceutica NV, priority 2006, dated 2015).
# Where a name gives a salt, the structure may show the parent alone.
# Target: T1, cloned human H3 receptors (Homo sapiens, UniProt Q9Y5N1)
# T1 construct: expressed in transfected cells
# Test: H3 Receptor Binding (Human)
# Conditions: bromo-pyridine intermediates (Step A), value given in the synthesis; read-out: Assay 1 (Human H3): Ki
# Protocol: H3 Receptor Binding (Human)
# Binding of compounds to the cloned human H3 receptors, stably expressed in SK-N-MC cells, was performed as described by Barbier, A. J. et al. (Br. J. Pharmacol. 2004, 143(5), 649-661).
# T1 sequence (Q9Y5N1 whole entry): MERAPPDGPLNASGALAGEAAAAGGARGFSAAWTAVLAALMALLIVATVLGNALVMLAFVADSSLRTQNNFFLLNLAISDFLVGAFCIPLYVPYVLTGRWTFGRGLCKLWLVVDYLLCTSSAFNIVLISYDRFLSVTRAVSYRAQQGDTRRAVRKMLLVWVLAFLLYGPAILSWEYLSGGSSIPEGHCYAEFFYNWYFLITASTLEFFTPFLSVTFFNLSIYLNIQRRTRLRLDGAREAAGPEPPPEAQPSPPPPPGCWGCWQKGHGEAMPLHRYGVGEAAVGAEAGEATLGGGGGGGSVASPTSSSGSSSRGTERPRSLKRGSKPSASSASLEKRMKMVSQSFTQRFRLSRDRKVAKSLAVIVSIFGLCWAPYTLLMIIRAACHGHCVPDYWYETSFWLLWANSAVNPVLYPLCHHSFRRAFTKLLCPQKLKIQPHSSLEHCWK
row,SMILES,Ki
1,"O=C(c1cccc(Br)n1)N1CCCN(C2CC2)CC1 [(6-Bromo-pyridin-2-yl)-(4-cyclopropyl-[1,4]diazepan-1-yl)-methanone]",431 nM
2,"O=C(c1ccc(Br)cn1)N1CCCN(C2CCC2)CC1 [(5-Bromo-pyridin-2-yl)-(4-cyclobutyl-[1,4]diazepan-1-yl)-methanone]",11 nM
3,CC(C)N1CCN(C(=O)c2cccc(Br)n2)CC1 [(6-Bromo-pyridin-2-yl)-(4-isopropyl-piperazin-1-yl)-methanone],1400 nM
4,"O=C(c1ccc(Br)cn1)N1CCCN(C2CC2)CC1 [(5-Bromo-pyridin-2-yl)-(4-cyclopropyl-[1,4]diazepan-1-yl)-methanone]",115 nM

# Same assay, conditions: cloned human H3 receptors stably expressed in SK-N-MC cells; average of the results obtained; read-out: Human H3 Ki
row,Ki,SMILES
1,250 nM,"CN1CCCN(C(=O)c2ccc(Oc3ccc(F)cc3)nc2)CC1 [Example 92, [6-(4-Fluoro-phenoxy)-pyridin-3-yl]-(4-methyl-[1,4]diazepan-1-yl)-methanone]"
2,49 nM,"CC(C)N1CCN(C(=O)c2ccc(Oc3ccc(Cl)c(Cl)c3)c(C#N)n2)CC1 [Example 53, 3-(3,4-Dichloro-phenoxy)-6-(4-isopropyl-piperazine-1-carbonyl)-pyridine-2-carbonitrile trifluoroacetic acid salt]"
3,165 nM,"CC(C)N1CCN(C(=O)c2ccc(Oc3ccc(Cl)c(Cl)c3)c(CN)n2)CC1 [Example 64, [6-Aminomethyl-5-(3,4-dichloro-phenoxy)-pyridin-2-yl]-(4-isopropyl-piperazin-1-yl)-methanone trifluoroacetic acid salt]"
4,1 nM,"N#Cc1nc(C(=O)N2CCCN(C3CCC3)CC2)ccc1Oc1ccc(F)cc1 [Example 82, 6-(4-Cyclobutyl-[1,4]diazepane-1-carbonyl)-3-(4-fluoro-phenoxy)-pyridine-2-carbonitrile]"
5,10 nM,"O=C(c1ccc(Oc2ccc(F)cc2)nc1)N1CCN(C2CCC2)CC1 [Example 79, (4-Cyclobutyl-piperazin-1-yl)-[6-(4-fluoro-phenoxy)-pyridin-3-yl]-methanone]"
6,67 nM,"Cc1cc(Oc2cccc(C(=O)N3CCCN(C4CCC4)CC3)n2)ccc1Cl [Example 48, [6-(4-Chloro-3-methyl-phenoxy)-pyridin-2-yl]-(4-cyclobutyl-[1,4]diazepan-1-yl)-methanone trifluoroacetic acid salt]"
7,3 nM,"N#Cc1nc(C(=O)N2CCCN(C3CC3)CC2)ccc1Oc1ccccc1 [Example 81, 6-(4-Cyclopropyl-[1,4]diazepane-1-carbonyl)-3-phenoxy-pyridine-2-carbonitrile]"
8,36 nM,"CSc1ccc(Oc2ccc(C(=O)N3CCCN(C4CC4)CC3)nc2C(N)=O)cc1 [Example 62, 6-(4-Cyclopropyl-[1,4]diazepane-1-carbonyl)-3-(4-methylsulfanyl-phenoxy)-pyridine-2-carboxylic acid amide]"
9,104 nM,"CC(C)N1CCN(C(=O)c2ccc(Oc3ccc(Cl)c(Cl)c3)c(C(N)=O)n2)CC1 [Example 54, 3-(3,4-Dichloro-phenoxy)-6-(4-isopropyl-piperazine-1-carbonyl)-pyridine-2-carboxylic acid amide trifluoroacetic acid salt]"
10,10 nM,"N#Cc1nc(C(=O)N2CCCN(C3CC3)CC2)ccc1Oc1ccc(Cl)c(Cl)c1 [Example 58, 6-(4-Cyclopropyl-[1,4]diazepane-1-carbonyl)-3-(3,4-dichloro-phenoxy)-pyridine-2-carbonitrile]"
11,59 nM,"CSc1ccc(Oc2ccc(C(=O)N3CCN(C(C)C)CC3)cn2)cc1C [Example 101, (4-Isopropyl-piperazin-1-yl)-[6-(3-methyl-4-methylsulfanyl-phenoxy)-pyridin-3-yl]-methanone]"
12,115 nM,"Cc1cc(Oc2cccc(C(=O)N3CCCN(C(C)C)CC3)n2)ccc1Cl [Example 49, [6-(4-Chloro-3-methyl-phenoxy)-Pyridin-2-yl]-(4-isopropyl-[1,4]diazepan-1-yl)-methanone trifluoroacetic acid salt]"
13,32 nM,"NC(=O)c1nc(C(=O)N2CCCN(C3CC3)CC2)ccc1Oc1cccnc1 [Example 63, 6-(4-Cyclopropyl-[1,4]diazepane-1-carbonyl)-3-(pyridin-3-yloxy)-pyridine-2-carboxylic acid amide]"
14,9 nM,"CC(C)N1CCN(C(=O)c2ccc(Oc3ccccc3Cl)nc2)CC1 [Example 75, [6-(2-Chloro-phenoxy)-pyridin-3-yl]-(4-isopropyl-piperazin-1-yl)-methanone]"
15,253 nM,"CN1CCCN(C(=O)c2ccc(Oc3ccc(F)cc3)nc2)CC1 [Example 80, [6-(4-Fluoro-phenoxy)-pyridin-3-yl]-(4-methyl-[1,4]diazepan-1-yl)-methanone]"
16,2 nM,"O=C(c1ccc(Oc2cccc(F)c2)cn1)N1CCCN(C2CCC2)CC1 [Example 71, (4-Cyclobutyl-[1,4]diazepan-1-yl)-[5-(3-fluoro-phenoxy)-pyridin-2-yl]-methanone trifluoroacetic acid salt]"
17,24 nM,O=C(c1ccc(Oc2ccccc2F)nc1)N1CCN(C2CCCC2)CC1 [Example 78]
18,1 nM,"Cc1cccc(Oc2ccc(C(=O)N3CCCN(C4CCC4)CC3)cn2)c1 [Example 103, (4-Cyclobutyl-[1,4]diazepan-1-yl)-(6-m-tolyloxy-pyridin-3-yl)-methanone]"
19,58 nM,"CC(C)CN1CCN(C(=O)c2ccc(Oc3ccc(F)cc3)nc2)CC1 [Example 93, [6-(4-Fluoro-phenoxy)-pyridin-3-yl]-(4-isobutyl-piperazin-1-yl)-methanone]"
20,3 nM,"O=C(c1ccc(Sc2ccccc2)cn1)N1CCCN(C2CCC2)CC1 [Example 91, (4-Cyclobutyl-[1,4]diazepan-1-yl)-(5-phenylsulfanyl-pyridin-2-yl)-methanone]"
21,29 nM,"N#Cc1nc(C(=O)N2CCCN(C3CC3)CC2)ccc1Oc1cccc(F)c1 [Example 60, 6-(4-Cyclopropyl-[1,4]diazepane-1-carbonyl)-3-(3-fluoro-phenoxy)-pyridine-2-carbonitrile]"
22,18 nM,"CC(C)N1CCCN(C(=O)c2ccc(Oc3ccc(Cl)c(Cl)c3)cn2)CC1 [Example 50, [5-(3,4-Dichloro-phenoxy)-pyridin-2-yl]-(4-isopropyl-[1,4]diazepan-1-yl)-methanone trifluoroacetic acid salt]"

# Continued, molecule first:
row,SMILES,Ki
1,"O=C(c1ccc(Oc2ccc(F)cc2)nc1)N1CCN(C2CC2)CC1 [Example 22, (4-Cyclopropyl-piperazin-1-yl)-[6-(4-fluoro-phenoxy)-pyridin-3-yl]-methanone]",180 nM
2,"O=C(c1ccc(Oc2cc(Cl)cc(Cl)c2)nc1)N1CCCN(C2CC2)CC1 [Example 35, (4-Cyclopropyl-[1,4]diazepan-1-yl)-[6-(3,5-dichloro-phenoxy)-pyridin-3-yl]-methanone]",3 nM
3,"CC(C)N1CCN(C(=O)c2ccc(Oc3cccnc3)nc2)CC1 [Example 2, (4-Isopropyl-piperazin-1-yl)-[6-(pyridin-3-yloxy)-pyridin-3-yl]-methanone]",56 nM
4,"O=C(c1cccc(Oc2ccc(Cl)c(Cl)c2)n1)N1CCCN(C2CCC2)CC1 [Example 45, (4-Cyclobutyl-[1,4]diazepan-1-yl)-[6-(3,4-dichloro-phenoxy)-pyridin-2-yl]-methanone]",34 nM
5,"O=C(c1ccc(Oc2cc(Cl)cc(Cl)c2)nc1)N1CCCN(C2CCC2)CC1 [Example 33, (4-Cyclobutyl-[1,4]diazepan-1-yl)-[6-(3,5-dichloro-phenoxy)-pyridin-3-yl]-methanone]",1 nM
6,"Cc1cc(Oc2ccc(C(=O)N3CCCN(C(C)C)CC3)cn2)ccc1Cl [Example 17, [6-(4-Chloro-3-methyl-phenoxy)-pyridin-3-yl]-(4-isopropyl-[1,4]diazepan-1-yl)-methanone]",5 nM
7,"CC(C)N1CCN(C(=O)c2ccc(Oc3cccc(C#N)c3)nc2)CC1 [Example 7, 3-[5-(4-Isopropyl-piperazine-1-carbonyl)-pyridin-2-yloxy]-benzonitrile]",57 nM
8,"CC(C)N1CCN(C(=O)c2ccc(Oc3ccc(Cl)c(Cl)c3)nc2)CC1 [Example 1, [6-(3,4-Dichloro-phenoxy)-pyridin-3-yl]-(4-isopropyl-piperazin-1-yl)-methanone]",29 nM
9,"CSc1ccc(Oc2ccc(C(=O)N3CCCN(C(C)C)CC3)cn2)cc1C [Example 42, (4-Isopropyl-[1,4]diazepan-1-yl)-[6-(3-methyl-4-methylsulfanyl-phenoxy)-pyridin-3-yl]-methanone]",12 nM
10,"Cc1cc(Oc2ccc(C(=O)N3CCN(C(C)C)CC3)cn2)ccc1Cl [Example 6, [6-(4-Chloro-3-methyl-phenoxy)-pyridin-3-yl]-(4-isopropyl-piperazin-1-yl)-methanone]",32 nM
11,"CC(C)N1CCCN(C(=O)c2ccc(Oc3ccc(Cl)c(Cl)c3)nc2)CC1 [Example 15, [6-(3,4-Dichloro-phenoxy)-pyridin-3-yl]-(4-isopropyl-[1,4]diazepan-1-yl)-methanone]",8 nM
12,"O=C(c1ccc(Oc2cc(F)ccc2F)nc1)N1CCCN(C2CC2)CC1 [Example 34, (4-Cyclopropyl-[1,4]diazepan-1-yl)-[6-(2,5-difluoro-phenoxy)-pyridin-3-yl]-methanone]",5 nM
13,"CC(C)N1CCN(C(=O)c2ccc(Oc3ccc(Cl)cc3)nc2)CC1 [Example 8, [6-(4-Chloro-phenoxy)-pyridin-3-yl]-(4-isopropyl-piperazin-1-yl)-methanone]",68 nM
14,"O=C(c1ccc(Oc2ccc(Cl)cc2)nc1)N1CCCN(C2CC2)CC1 [Example 10, [6-(4-Chloro-phenoxy)-pyridin-3-yl]-(4-cyclopropyl-[1,4]diazepan-1-yl)-methanone]",10 nM
15,"CC(C)N1CCN(C(=O)c2cccc(Oc3ccc(Cl)c(Cl)c3)n2)CC1 [Example 43, [6-(3,4-Dichloro-phenoxy)-pyridin-2-yl]-(4-isopropyl-piperazin-1-yl)-methanone]",299 nM
16,"CSc1ccc(Oc2ccc(C(=O)N3CCN(C(C)C)CC3)cn2)cc1 [Example 3, (4-Isopropyl-piperazin-1-yl)-[6-(4-methylsulfanyl-phenoxy)-pyridin-3-yl]-methanone]",66 nM
